ChEMBL document CHEMBL1201862, “PubChem BioAssay data set” (2004)
Activity calls are given as the source filed them.

Key:
[1] = target: Cytochrome P450 2C19 (Homo sapiens, UniProt P33261); test: Cytochrome panel assay with activity outcomes. Panel member name: p450-cyp2c19 Compounds with AC50 equal or less than 10 uM are considered active; format: functional
[2] = target: Cytochrome P450 2D6 (Homo sapiens, UniProt P10635);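 further: CYP2D6 member of a cytochrome P450 panel assay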
[3] = tested on: Escherichia coli; test: microbe, parasite or virus in culture
[4] = target: T1, Carboxy-terminal domain RNA polymerase II polypeptide A small phosphatase 1 (Homo sapiens, UniProt Q9GZU7); test: inhibitors of CTDSP1, concentration-response testing, biochemical assay, absorbance-based, actives from ultra-high-throughput screening (AID 540297); format: functional
T1 sequence (Q9GZU7 whole entry): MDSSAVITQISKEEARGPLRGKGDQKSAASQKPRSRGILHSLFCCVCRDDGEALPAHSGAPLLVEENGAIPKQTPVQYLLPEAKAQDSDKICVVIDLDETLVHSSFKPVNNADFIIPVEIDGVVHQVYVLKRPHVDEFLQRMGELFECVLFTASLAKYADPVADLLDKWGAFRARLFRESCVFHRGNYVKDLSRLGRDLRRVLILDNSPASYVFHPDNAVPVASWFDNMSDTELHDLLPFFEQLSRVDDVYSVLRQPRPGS

[5] = THP-1 cell cytotoxicity, dose response, cytotoxicity control for Vif-APOBEC3G degradation inhibitor project, THP-1 cells (AID 1117359); format: functional; conditions: Human immunodeficiency virus 1, THP-1
[6] = target: Induced myeloid leukemia cell differentiation protein Mcl-1 (Homo sapiens, UniProt Q07820); format: functional
[7] = target: Paired box protein Pax-8 (Homo sapiens, UniProt Q06710); test: inhibitors of PAX8-driven TPO luciferase reporter, dose response, RMG-I cells, cherry-pick (AID 687027); format: functional, cell-based;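 further: luciferase reporter driven by Pax8 target thyroperoxidase promoter measured by SteadyGlo luminescence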
[8] = target: T2, Microphthalmia-associated transcription factor (Homo sapiens, UniProt O75030); test: TRPM1 promoter luciferase signal decrease, dose response, MITF inhibitor project, cell-based, SK-MEL-5, cherry-picked, set 3 (AID 493073); format: functional
T2 sequence (O75030 whole entry): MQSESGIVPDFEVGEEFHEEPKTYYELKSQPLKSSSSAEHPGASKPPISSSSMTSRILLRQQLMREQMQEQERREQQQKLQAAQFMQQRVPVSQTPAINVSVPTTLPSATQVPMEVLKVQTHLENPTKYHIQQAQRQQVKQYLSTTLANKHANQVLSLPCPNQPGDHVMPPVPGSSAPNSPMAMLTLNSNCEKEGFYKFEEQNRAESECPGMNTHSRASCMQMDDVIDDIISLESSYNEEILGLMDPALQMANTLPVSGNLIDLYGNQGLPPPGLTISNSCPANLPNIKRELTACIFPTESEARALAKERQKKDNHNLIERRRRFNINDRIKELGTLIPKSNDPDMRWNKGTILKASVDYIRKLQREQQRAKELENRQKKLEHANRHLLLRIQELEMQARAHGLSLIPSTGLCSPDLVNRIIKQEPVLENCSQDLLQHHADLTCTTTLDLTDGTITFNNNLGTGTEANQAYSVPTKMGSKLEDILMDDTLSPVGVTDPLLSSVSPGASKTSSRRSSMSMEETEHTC

[9] = tested on: H4; test: Luminescence Cell-Based Dose Response HTS to Identify Activators of 5'UTR Stem-Loop Driven Prion Protein mRNA Translation in H4 Neuroglioblastoma Cells. [Related pubchem assays: 1829 (Project Summary), 1814 (Primary HTS)]; format: functional; conditions: Homo sapiens
[10] = tested on: HeLa; test: HeLa cell cytotoxicity, dose response, cytotoxicity control for MITF activator project, CellTiter-Glo luminescence, cherry-pick samples (AID 540259); format: functional, cell-based; conditions: Homo sapiens
[11] = Luminescence Cell-Based Dose Response HTS to Identify Activators of Luciferase Translation or Activity in H4 […] Cells. [Related pubchem assays: 1829 (Project Summary), 1814 (Primary HTS)]; format: functional
[12] = growth suppression of PTEN-null colon cells, dose response, cell-based, HCT116 PTEN knockout (AID 1047); format: functional;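 further: HCT116 colon tumor cells with PTEN knocked out; cells exposed to compound for 60 hours before readout; potency for loss of cell viability measured by luminescence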
[13] = target: T3, Protein RecA (Mycobacterium tuberculosis, UniProt P9WHJ3); test: Fluorescence Cell-Free Homogeneous Dose Retest to Identify Inhibitors of RecA-Intein Splicing Activity. [Related pubchem assays (depositor defined):AID2097, AID2223, AID489010, AID492950]; format: functional
T3 sequence (P9WHJ3 whole entry): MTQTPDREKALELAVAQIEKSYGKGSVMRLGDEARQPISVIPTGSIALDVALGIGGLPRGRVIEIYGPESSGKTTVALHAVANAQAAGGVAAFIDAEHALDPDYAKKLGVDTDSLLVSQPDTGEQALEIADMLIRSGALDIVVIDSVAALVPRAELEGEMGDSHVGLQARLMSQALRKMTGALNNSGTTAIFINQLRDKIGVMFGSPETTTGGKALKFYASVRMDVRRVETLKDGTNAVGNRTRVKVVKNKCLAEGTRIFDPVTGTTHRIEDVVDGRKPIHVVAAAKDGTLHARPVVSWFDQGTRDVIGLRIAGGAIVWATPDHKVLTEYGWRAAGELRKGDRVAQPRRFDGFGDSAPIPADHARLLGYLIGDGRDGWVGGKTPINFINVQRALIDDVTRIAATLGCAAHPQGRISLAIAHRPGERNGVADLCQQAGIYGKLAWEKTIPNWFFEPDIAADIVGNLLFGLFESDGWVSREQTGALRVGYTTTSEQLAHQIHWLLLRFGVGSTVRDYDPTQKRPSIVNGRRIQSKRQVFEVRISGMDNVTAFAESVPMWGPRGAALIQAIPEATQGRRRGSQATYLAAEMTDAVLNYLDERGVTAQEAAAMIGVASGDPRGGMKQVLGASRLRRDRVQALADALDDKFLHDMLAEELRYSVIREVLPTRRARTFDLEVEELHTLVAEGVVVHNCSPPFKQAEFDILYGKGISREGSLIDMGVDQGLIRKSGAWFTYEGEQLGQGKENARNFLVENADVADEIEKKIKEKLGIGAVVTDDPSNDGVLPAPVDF

[14] = target: T4, Replicative DNA helicase DnaB (Mycobacterium tuberculosis, UniProt P9WMR3); test: DnaB intein splicing inhibitors, dose response, biochemical, cell-free fluorescence (AID 449749); format: functional
T4 sequence (P9WMR3 whole entry): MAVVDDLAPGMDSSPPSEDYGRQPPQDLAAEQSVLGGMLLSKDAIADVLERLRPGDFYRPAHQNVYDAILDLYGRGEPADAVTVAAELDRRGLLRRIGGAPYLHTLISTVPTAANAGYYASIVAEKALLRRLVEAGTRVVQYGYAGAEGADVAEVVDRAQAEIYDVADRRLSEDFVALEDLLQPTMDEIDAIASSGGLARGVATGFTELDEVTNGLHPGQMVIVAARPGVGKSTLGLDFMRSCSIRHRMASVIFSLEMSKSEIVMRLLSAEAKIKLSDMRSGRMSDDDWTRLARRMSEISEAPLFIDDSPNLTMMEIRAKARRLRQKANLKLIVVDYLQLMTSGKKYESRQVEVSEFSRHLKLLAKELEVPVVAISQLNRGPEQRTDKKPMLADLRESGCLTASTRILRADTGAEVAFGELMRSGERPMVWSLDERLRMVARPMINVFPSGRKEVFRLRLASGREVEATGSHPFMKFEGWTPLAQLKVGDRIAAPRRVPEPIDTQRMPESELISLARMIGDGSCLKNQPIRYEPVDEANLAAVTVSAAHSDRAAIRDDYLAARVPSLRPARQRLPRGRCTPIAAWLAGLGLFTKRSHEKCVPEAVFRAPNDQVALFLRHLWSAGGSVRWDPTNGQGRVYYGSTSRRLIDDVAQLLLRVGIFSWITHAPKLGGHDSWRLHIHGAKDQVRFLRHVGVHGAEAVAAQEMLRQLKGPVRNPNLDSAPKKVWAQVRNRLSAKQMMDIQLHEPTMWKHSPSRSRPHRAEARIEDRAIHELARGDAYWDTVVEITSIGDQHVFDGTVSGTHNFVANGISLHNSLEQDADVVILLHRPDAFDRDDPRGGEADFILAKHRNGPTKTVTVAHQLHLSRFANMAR

[15] = growth suppression of beta-catenin-knockout colon cells, dose response, cell-based, HCT116, human colon tumor (AID 1045); format: functional;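 further: HCT116 colon tumor cells with beta catenin knocked out; cells exposed to compound for 60 hours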
[16] = cytotoxicity in HEK-293T cells, dose response, cytotoxicity control for BCR NF-kB inhibitor project, luminescence, B-cell screen hits (AID 489021); format: functional, cell-based;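 further: HEK-293T cells carrying an NF-kB luciferase reporter; cells exposed to compound for about 14 hours before viability readout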
[17] = tested on: INS1; test: beta cell apoptosis inhibitors, cytokine rescue, dose response, luminescence, retest (AID 449756); format: functional, cell-based; conditions: Rattus norvegicus;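 further: cell death triggered by IL-1 beta plus TNF-alpha plus IFN-gamma mixture; protective hits raise ATP signal compared with cytokine alone wells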
[18] = Luminescence Cell-Based Dose Retest to Confirm Inhibitors of Cancer Stem Cells. [Related pubchem assays (depositor defined):AID2717, AID2721]; format: functional; conditions: Homo sapiens
[19] = target: Dual specificity tyrosine-phosphorylation-regulated kinase 1A (Rattus norvegicus, UniProt Q63470); format: biochemical, Homo sapiens
[20] = HEp-2 cell cytotoxicity, dose response, cytotoxicity control for RSV inhibitor project, HTS (AID 2410); format: functional; conditions: human respiratory syncytial virus
[21] = target: Cytochrome P450 3A4 (Homo sapiens, UniProt P08684);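 further: CYP3A4 tested as one member of a cytochrome P450 panel screen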
[22] = target: T5, Cytochrome P450 1A2 (Homo sapiens, UniProt P05177)
T5 sequence (P05177 whole entry): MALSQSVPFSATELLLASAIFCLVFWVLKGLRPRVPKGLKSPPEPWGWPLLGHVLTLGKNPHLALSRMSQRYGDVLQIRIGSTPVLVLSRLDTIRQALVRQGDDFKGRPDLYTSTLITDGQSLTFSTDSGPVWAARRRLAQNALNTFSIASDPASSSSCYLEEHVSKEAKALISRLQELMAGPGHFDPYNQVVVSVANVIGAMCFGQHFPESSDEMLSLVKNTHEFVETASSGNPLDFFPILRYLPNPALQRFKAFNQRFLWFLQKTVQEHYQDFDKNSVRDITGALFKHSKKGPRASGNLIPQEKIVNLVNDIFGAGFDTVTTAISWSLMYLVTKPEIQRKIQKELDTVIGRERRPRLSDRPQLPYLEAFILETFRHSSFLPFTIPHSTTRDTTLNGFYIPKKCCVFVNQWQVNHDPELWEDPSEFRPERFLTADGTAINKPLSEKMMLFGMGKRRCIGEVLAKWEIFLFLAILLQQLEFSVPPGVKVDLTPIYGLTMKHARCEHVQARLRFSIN

[23] = target: Cytochrome P450 2C9 (Homo sapiens, UniProt P11712)
[24] = cells; format: functional, cell-based
[25] = cells; format: functional, cell-based; remark: listed apart in the source

Cytochrome P450 2D6, sequence (P10635 whole entry): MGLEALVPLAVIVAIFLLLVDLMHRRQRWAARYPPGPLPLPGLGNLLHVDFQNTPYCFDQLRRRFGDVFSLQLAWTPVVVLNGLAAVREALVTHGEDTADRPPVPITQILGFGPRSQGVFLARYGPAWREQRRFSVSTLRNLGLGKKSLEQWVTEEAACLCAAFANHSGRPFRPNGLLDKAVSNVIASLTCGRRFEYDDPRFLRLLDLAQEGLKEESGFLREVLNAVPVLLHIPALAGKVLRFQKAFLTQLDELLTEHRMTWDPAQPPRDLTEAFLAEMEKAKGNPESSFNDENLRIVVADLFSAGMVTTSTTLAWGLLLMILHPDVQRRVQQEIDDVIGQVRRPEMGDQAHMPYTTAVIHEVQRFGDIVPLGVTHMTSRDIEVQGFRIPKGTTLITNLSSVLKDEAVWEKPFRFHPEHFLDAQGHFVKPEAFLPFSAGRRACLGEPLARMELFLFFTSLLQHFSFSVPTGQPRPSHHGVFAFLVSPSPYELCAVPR
Cytochrome P450 2C19, sequence (P33261 whole entry): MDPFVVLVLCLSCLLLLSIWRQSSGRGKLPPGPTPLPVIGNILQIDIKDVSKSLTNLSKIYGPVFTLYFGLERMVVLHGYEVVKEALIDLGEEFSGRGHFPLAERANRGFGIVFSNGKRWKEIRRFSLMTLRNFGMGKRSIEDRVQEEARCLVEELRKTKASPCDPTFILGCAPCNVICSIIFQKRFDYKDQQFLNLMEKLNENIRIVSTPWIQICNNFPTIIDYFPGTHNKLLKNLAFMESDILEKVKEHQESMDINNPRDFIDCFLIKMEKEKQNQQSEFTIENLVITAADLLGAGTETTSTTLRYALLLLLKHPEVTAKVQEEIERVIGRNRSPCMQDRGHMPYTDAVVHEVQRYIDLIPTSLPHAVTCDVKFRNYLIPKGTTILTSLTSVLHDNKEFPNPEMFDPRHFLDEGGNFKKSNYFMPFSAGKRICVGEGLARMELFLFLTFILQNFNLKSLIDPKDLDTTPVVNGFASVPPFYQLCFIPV
Cytochrome P450 2C9, sequence (P11712 whole entry): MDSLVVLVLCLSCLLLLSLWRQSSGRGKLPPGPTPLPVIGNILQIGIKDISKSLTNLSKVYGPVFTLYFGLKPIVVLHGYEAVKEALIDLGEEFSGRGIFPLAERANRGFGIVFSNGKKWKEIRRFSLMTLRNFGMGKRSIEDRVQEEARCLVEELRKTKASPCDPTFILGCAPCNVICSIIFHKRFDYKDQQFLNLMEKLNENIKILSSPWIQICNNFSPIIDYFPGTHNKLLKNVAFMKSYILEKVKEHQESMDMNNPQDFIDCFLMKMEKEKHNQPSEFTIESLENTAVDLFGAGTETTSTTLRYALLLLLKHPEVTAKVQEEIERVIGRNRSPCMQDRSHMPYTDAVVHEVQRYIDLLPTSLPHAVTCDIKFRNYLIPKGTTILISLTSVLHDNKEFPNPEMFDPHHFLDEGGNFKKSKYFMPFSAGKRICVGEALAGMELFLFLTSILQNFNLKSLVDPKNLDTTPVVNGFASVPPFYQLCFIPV
Induced myeloid leukemia cell differentiation protein Mcl-1, sequence (Q07820 whole entry): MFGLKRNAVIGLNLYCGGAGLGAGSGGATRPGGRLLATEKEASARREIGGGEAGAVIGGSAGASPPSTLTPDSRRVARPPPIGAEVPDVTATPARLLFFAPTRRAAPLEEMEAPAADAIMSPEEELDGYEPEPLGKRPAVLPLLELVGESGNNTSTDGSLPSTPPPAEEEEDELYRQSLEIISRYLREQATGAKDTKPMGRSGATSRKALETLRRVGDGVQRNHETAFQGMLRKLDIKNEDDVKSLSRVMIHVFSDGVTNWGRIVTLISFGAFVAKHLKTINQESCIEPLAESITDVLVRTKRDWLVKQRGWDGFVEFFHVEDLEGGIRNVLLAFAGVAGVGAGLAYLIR
Cytochrome P450 3A4, sequence (P08684 whole entry): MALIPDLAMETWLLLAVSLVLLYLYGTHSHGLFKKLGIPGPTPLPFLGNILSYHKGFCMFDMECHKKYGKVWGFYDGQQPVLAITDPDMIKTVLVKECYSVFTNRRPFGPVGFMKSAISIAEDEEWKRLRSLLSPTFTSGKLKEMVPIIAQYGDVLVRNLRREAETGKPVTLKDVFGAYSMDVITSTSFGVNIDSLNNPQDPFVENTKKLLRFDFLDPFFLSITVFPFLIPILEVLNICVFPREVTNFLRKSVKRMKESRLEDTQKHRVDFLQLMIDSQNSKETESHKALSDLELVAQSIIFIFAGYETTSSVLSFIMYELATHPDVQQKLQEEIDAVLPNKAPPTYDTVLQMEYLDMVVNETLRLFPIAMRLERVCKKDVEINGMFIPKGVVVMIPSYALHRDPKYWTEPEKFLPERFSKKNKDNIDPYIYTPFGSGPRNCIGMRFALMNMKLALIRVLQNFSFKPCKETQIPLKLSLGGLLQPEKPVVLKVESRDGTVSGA
Paired box protein Pax-8, sequence (Q06710 whole entry): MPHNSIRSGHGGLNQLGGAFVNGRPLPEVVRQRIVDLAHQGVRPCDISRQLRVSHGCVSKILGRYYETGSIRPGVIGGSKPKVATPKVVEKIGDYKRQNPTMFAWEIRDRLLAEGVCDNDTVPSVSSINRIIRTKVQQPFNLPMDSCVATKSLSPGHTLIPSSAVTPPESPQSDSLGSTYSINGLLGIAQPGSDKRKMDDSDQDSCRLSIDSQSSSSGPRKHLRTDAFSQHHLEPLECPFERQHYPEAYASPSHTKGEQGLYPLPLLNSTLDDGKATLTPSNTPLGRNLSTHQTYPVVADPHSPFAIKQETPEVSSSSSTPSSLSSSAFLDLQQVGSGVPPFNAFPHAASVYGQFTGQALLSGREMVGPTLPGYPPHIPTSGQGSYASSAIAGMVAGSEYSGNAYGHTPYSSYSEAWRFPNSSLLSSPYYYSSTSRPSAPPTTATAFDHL

COc1ccc(C(=O)C2=C(O)C(=O)N(CCCC(=O)O)C2c2ccc(OC)cc2)cc1 (stereo not given)
AC50 [1]: inconclusive | AC50 [2]: inconclusive

Cc1ccc(-c2cc(C(F)F)n3ncc(C(=O)Nc4ccc(S(=O)(=O)Nc5ccccc5C)cc4)c3n2)cc1
AC50 [3]: 21.5 µM (active)

CC(=O)c1ccc(NC(=O)CSc2nnc(-c3ccco3)c(-c3ccco3)n2)cc1
IC50 [4]: 3.88 µM (active) | CC50 [5]: > 40 µM (active) | IC50 [6]: 8.94 µM (active)

Cc1ccc(NC(=O)c2ccc([N+](=O)[O-])s2)cc1S(=O)(=O)N1CCOCC1
AC50 [7]: 3.94 µM (active) | AC50 [8]: 3.78 µM (active)

COc1ccc(-c2nnn(Cc3ccccc3F)n2)cc1
EC50 [9]: 44.6 µM (inconclusive) | AC50 [10]: 60.2 µM (active) | EC50 [11]: 1.75 µM (active)

O=C(CCl)N(c1ccccc1)c1c[nH]c2ccccc12
EC50 [12]: 3.78 µM (active) | EC50 [13]: 0.361 µM (active) | AC50 [8]: 5.09 µM (active) | AC50 [14]: 8.51 µM (active) | EC50 [15]: 3.3 µM (active)

CCCCSc1nc2c(c(=O)[nH]c(=O)n2C)n1CCc1ccccc1
AC50 [3]: 50.8 µM (active)

COc1cc(/C=C(\C#N)c2nn(CCO)c(N)c2C#N)cc(OC)c1OC
AC50 [3]: 29 µM (active)

CCOc1ccc(/C=C2\SC(=S)N(CCC(=O)Nc3cccc(C(=O)O)c3)C2=O)cc1
IC50 [16]: > 80 µM (inactive) | IC50 [4]: 3.77 µM (active)

O=S(=O)(O)c1ccc(/N=N\c2ccccc2)cc1
AC50 [2]: inconclusive

CCCCNc1c(-c2ccc(-c3cccc(Cl)c3)cc2)nc2ccccn12
AC50 [17]: 6.04 µM (active) | AC50 [18]: 3.86 µM (active) | AC50 [10]: 32.4 µM (active)

CC(=O)O[C@H](COc1c2ccoc2cc2oc(=O)ccc12)C(C)(C)O
AC50 [19]: 3.74 µM (active)

CC(=O)COC(=O)CCc1nc2ccccc2nc1O
AC50 [2]: inconclusive

CN(CCC#N)C(=O)c1cc2c(s1)-c1ccccc1SC2
CC50 [20]: 28 µM (active) | AC50 [10]: 63.4 µM (active)

Cc1cc2ccccc2nc1SCC(=O)Nc1nc(-c2ccccc2)cs1
AC50 [21]: 0.178 µM (inconclusive) | AC50 [22]: 0.2 µM (inconclusive) | AC50 [2]: inconclusive | AC50 [23]: 1.12 µM (inconclusive)

C[C@@H]1O[C@@H](OC[C@H]2O[C@@H](Oc3c(-c4ccc(O)cc4)oc4cc(O)cc(O)c4c3=O)[C@H](O)[C@@H](O)[C@@H]2O)[C@H](O)[C@H](O)[C@H]1O [NICOTIFLOROSIDE]
EC50 [24]: > 350 µM (not active) | AC50 [19]: 7.78 µM (active) | EC50 [25]: > 350 µM (not active)

CCOC(=O)C1(C)C(C(=O)OC)=C(c2ccc(OC)cc2)c2ccccc2N1C(=O)OC (stereo not given)
IC50 [4]: 29.5 µM (active)

COC(=O)CNC(=O)CN1C(=O)N(c2ccccc2)C(N(O)C(=O)Nc2ccccc2)C1(C)C (stereo not given)
AC50 ([1]; read-out: AC50): 3.55 µM (inconclusive) | AC50 [2]: inconclusive | AC50 [23]: 10 µM (inconclusive)

O=C(NCCc1c[nH]c2ccccc12)c1cc(Cl)c2c(c1)OCO2
AC50 [10]: 70.3 µM (active)
